Data set [1] is described as follows: Metabolic stability in human liver microsome assessed as parent compound remaining at […] measured after 10 mins. In kind it is ADME. The note with it: liver microsomes, read-out: Stability.
For data set [2], the target named is Voltage-gated inwardly rectifying potassium channel KCNH2 (Homo sapiens, UniProt Q12809). In words: Inhibition of hERG by patch clamp assay. Format: toxicity.
The subject of data set [3] is Mus musculus. In words: Antifibrotic activity against bile duct ligation-induced liver cholestasis C57BL/6NTac mouse model assessed as reduction in hydroxyproline level in liver administered orally as single dose for 9 days and measured after 24 hrs post-last dose by picrosirius red staining method. Format: functional, organism-based. The note with it: dose 0.3-10 mg/kg, route po, time 9.0 day, DDE = dose-dependent effect.

Data set [4] in a line: Clearance in Sprague-Dawley rat at 1 mg/kg, iv. In kind it is ADME, organism-based. The note with it: in vivo.
For a further data set, the target named is Cytochrome P450 2C9 (Homo sapiens, UniProt P11712). The data set can be described thus: Inhibition of CYP2C9 in human liver microsomes using fluorogenic substrate preincubated for 15 min followed by NADPH addition measured after 2 hrs by fluorescence based assay. Format: ADME, Microsome.
Sequence of Cytochrome P450 2C9 (P11712 whole entry): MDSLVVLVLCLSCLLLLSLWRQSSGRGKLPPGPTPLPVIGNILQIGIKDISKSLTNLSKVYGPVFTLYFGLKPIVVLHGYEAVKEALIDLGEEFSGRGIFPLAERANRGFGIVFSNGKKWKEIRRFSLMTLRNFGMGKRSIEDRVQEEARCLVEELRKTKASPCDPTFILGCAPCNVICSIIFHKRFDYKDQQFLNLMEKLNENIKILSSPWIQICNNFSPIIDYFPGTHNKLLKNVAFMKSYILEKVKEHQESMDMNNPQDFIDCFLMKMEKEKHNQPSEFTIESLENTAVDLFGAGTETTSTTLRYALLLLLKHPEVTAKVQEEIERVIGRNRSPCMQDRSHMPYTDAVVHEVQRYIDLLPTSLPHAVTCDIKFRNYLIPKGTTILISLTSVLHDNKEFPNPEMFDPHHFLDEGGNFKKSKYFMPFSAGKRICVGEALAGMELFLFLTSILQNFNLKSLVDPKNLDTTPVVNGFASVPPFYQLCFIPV
A short description of data set [5]: Half life in Sprague-Dawley rat at 1 mg/kg, iv. In kind it is ADME, organism-based. The note with it: in vivo.
Data set [6] has as its target T1, Bile acid receptor (Mus musculus) (UniProt Q60641).
T1 sequence (whole entry): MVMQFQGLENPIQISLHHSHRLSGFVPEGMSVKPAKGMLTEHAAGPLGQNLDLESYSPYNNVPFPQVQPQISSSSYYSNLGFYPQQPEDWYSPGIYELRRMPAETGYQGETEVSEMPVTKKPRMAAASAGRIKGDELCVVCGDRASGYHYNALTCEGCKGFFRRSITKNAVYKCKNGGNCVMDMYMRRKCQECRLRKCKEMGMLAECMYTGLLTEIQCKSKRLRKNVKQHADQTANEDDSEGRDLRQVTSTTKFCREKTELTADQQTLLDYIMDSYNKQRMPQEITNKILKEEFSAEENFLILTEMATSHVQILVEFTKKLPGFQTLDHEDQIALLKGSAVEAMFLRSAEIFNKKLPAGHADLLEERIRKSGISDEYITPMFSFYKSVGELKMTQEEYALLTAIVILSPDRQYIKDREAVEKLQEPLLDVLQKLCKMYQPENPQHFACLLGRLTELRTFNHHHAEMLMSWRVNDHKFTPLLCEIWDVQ
The data set can be described thus: Agonist activity at LBD-fused mouse FXR in HEK293 cells incubated for 30 min by envision plate reader method relative to GW2064. In kind it is cell-based. The note with it: filed as agonist.

Data set [7] is described as follows: Metabolic stability in mouse liver microsome assessed as parent compound remaining at […] measured after 10 mins. Format: ADME. The note with it: liver microsomes, read-out: Stability. In general terms: Microsomes from liver hold many membrane-bound enzymes, among them those of drug oxidation.
The subject of data set [8] is Mus musculus. In words: Antifibrotic activity against bile duct ligation-induced liver cholestasis C57BL/6NTac mouse model assessed as reduction in collagen level administered orally as single dose for 9 days and measured after 24 hrs post-last dose by picrosirius red staining method. In kind it is functional, organism-based. The note with it: dose 0.3-10 mg/kg, route po, time 9.0 day, DDE = dose-dependent effect.

Data set [9] can be described thus: Genotoxicity in Salmonella typhimurium by Ames test. In kind it is toxicity. The note with it: salmonella enterica subsp. enterica serovar typhimurium. (The Ames test detects mutagens through reverse mutation in bacteria.)
A further data set deals with Cytochrome P450 3A4 (Homo sapiens, UniProt P08684). The data set can be described thus: Inhibition of CYP3A4 in human liver microsomes using fluorogenic substrate preincubated for 15 min followed by NADPH addition measured after 2 hrs by fluorescence based assay. In kind it is ADME, Microsome.
Sequence of Cytochrome P450 3A4 (P08684 whole entry): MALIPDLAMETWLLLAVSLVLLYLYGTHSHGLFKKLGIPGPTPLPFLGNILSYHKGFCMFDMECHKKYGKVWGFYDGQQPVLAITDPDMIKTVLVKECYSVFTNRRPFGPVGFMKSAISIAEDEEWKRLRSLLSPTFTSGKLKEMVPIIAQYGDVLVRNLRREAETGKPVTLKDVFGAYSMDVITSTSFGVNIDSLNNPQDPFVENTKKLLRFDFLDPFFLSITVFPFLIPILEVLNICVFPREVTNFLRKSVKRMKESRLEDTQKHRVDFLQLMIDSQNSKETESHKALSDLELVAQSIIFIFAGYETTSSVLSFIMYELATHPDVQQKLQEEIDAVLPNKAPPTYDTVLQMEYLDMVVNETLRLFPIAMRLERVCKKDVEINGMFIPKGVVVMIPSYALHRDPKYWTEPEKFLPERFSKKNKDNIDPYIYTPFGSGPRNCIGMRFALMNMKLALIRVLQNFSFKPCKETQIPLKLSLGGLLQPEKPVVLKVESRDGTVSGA
The nature of data set [10]: Oral bioavailability in Sprague-Dawley rat at 2 mg/kg. In kind it is ADME, organism-based. The note with it: in vivo.
Data set [11] in a line: Volume of distribution at steady state in Sprague-Dawley rat at 1 mg/kg, iv. The note with it: in vivo, read-out: Vdss. Format: ADME, organism-based.
A further data set deals with Cytochrome P450 2C19 (Homo sapiens, UniProt P33261). The data set can be described thus: Inhibition of recombinant CYP2C19 (unknown origin) using fluorogenic substrate preincubated for 15 min followed by NADPH addition measured after 2 hrs by fluorescence method. In kind it is ADME.
Sequence of Cytochrome P450 2C19 (P33261 whole entry): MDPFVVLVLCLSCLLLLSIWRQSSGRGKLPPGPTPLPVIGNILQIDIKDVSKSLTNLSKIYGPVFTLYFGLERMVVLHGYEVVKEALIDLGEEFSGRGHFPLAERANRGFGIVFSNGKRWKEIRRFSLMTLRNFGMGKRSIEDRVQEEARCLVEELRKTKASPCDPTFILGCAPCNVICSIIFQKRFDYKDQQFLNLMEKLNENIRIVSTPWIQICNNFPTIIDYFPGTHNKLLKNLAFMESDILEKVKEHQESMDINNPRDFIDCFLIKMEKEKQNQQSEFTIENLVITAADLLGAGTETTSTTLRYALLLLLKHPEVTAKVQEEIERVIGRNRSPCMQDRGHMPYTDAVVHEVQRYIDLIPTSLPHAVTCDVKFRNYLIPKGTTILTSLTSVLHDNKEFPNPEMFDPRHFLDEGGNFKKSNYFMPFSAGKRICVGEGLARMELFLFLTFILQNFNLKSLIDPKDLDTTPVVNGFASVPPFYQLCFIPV
For data set [12], the target named is T2, Solute carrier organic anion transporter family member 1B3 (Homo sapiens, UniProt Q9NPD5).
T2 sequence (Q9NPD5 whole entry): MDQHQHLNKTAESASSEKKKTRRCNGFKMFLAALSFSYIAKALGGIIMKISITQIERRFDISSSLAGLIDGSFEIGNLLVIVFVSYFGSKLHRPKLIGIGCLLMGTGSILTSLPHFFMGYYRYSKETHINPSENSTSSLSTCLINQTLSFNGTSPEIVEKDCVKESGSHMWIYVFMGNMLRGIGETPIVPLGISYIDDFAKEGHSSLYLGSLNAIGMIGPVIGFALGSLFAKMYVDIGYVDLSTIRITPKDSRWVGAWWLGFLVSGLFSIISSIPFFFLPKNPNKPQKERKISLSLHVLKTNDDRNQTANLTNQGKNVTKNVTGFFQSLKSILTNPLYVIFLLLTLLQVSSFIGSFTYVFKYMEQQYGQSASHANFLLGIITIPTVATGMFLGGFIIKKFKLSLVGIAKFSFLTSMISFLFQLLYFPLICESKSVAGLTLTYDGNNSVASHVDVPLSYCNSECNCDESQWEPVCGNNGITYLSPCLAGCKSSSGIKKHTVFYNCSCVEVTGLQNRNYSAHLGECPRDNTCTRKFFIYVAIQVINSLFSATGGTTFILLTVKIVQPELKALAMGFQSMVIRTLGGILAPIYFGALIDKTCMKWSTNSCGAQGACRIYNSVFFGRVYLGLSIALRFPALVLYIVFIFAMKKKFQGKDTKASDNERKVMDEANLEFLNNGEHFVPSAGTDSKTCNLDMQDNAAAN
In words: Inhibition of OATP1B3 (unknown origin).

In the next data set the target is Cytochrome P450 2D6 (Homo sapiens, UniProt P10635). The data set can be described thus: Inhibition of CYP2D6 in human liver microsomes using fluorogenic substrate preincubated for 15 min followed by NADPH addition measured after 2 hrs by fluorescence based assay. Format: ADME, Microsome.
Sequence of Cytochrome P450 2D6 (P10635 whole entry): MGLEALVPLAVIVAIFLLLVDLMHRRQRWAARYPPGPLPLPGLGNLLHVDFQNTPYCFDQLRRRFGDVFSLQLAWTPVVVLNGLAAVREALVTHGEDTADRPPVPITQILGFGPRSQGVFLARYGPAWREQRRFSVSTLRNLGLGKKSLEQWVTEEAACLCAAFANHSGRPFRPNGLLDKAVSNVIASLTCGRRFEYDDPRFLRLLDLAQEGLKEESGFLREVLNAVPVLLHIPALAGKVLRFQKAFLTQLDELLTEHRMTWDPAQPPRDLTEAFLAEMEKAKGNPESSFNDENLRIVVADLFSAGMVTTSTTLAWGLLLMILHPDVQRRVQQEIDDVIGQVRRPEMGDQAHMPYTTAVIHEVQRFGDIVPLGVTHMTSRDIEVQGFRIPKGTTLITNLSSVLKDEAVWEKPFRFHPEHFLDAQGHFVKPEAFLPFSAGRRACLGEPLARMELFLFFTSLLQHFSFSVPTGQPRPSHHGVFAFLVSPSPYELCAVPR
In data set [13] the test system is Bile acid receptor (Homo sapiens). In words: Agonist activity at human FXR expressed in HEK293 cells coexpressing IBABP relative to GW2064. The note with it: filed as agonist.
Data set [14] has the same test system. The data set can be described thus: Agonist activity at human FXR expressed in HEK293 cells coexpressing human FGF19 incubated for 24 hrs by ELISA analysis relative to GW2064. The note with it: filed as agonist. Background: An ELISA detects its analyte on a solid surface through an enzyme-linked reagent.
A short description of data set [15]: AUC (total) in Sprague-Dawley rat at 2 mg/kg, po. Format: ADME, organism-based. The note with it: in vivo. Details: dose 2 mg/kg, route po.
Data set [16] is described as follows: Half life in C57BL6 mouse at 1 mg/kg, iv. Format: ADME, organism-based. The note with it: in vivo.
In data set [17] the target is T3, Nuclear receptor subfamily 1 group I member 2 (Homo sapiens, UniProt O75469).
T3 sequence (O75469 whole entry): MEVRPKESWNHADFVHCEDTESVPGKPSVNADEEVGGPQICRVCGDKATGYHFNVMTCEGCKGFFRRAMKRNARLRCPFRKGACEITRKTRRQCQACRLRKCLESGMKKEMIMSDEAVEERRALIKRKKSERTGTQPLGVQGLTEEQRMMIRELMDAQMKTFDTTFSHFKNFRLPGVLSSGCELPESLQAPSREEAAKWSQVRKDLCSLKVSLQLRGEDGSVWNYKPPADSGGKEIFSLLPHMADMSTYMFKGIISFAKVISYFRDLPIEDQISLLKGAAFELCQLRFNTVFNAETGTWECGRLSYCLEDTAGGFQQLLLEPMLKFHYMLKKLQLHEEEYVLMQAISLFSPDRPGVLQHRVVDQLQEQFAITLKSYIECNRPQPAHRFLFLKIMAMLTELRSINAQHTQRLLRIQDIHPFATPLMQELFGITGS
The data set can be described thus: Transactivation of PXR (unknown origin) relative to refampicin. In kind it is ADME.

The term IC50 denotes the point on the concentration scale where inhibition reaches its midpoint. Broadly, the clearance is the rate of elimination divided by the concentration. Usually half-life stands for the time in which the quantity being followed falls by half. For orientation: Emax means the size of the effect at its maximum, as opposed to the concentration needed. The term bioavailability denotes dose-corrected exposure relative to a reference, in per cent. In general, AUC refers to concentration integrated over time. The low end stands for less exposure, the high end for more exposure.

Structures are written as SMILES.

Sequence of Voltage-gated inwardly rectifying potassium channel KCNH2 (Q12809 whole entry): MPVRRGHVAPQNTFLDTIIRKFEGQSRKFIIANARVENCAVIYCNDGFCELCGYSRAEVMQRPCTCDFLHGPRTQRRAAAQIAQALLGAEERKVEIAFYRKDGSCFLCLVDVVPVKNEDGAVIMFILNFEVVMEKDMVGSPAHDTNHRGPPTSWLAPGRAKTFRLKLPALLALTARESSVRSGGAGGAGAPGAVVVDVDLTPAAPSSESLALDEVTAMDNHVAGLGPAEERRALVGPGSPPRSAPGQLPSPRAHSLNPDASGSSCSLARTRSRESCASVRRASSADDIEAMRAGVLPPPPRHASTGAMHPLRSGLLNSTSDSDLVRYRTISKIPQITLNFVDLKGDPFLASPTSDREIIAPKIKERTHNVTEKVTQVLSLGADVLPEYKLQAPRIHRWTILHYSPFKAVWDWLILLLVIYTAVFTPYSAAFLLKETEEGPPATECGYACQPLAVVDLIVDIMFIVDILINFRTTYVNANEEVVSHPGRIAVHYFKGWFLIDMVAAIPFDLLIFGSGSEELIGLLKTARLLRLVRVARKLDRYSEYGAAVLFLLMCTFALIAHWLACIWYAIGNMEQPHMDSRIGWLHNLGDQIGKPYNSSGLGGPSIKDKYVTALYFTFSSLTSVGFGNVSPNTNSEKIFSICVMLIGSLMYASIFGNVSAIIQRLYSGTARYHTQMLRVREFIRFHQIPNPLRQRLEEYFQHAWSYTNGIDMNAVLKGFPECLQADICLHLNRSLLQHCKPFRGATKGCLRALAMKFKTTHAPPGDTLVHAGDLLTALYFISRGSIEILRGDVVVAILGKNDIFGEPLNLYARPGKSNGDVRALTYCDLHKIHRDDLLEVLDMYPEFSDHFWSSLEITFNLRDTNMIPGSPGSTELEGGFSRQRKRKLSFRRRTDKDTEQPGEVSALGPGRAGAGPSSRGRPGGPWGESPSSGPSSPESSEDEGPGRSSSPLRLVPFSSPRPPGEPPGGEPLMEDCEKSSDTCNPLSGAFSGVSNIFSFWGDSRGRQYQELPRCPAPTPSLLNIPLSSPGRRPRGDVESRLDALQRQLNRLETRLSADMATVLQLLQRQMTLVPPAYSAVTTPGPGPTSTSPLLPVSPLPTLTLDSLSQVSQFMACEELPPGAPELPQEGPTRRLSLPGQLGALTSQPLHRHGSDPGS

`CC(C)(O)c1ccc(-c2cccc(N(CC34CCC(c5noc(C(C)(C)F)n5)(CC3)CC4)C(=O)[C@H]3C[C@](O)(C(F)(F)F)C3)c2)cc1`: the results for the remaining at 10 min in [1] and in [7] were 100% and 90%, respectively. Also, the IC50 in [2] is 4.5 µM; against Cytochrome P450 2C9, 8 µM; on Cytochrome P450 3A4, > 20 µM; at Cytochrome P450 2C19 it was 7 µM; in data set [12], 13.5 µM; at Cytochrome P450 2D6, > 20 µM. Also, the Activity entry in the data set on Mus musculus [3] was “Dde”; in the data set with Mus musculus [8], “Dde”; in [9], “Non-Toxic”. The same compound registered a clearance in data set [4] of 4 mL/min/kg. Moreover, the half-life in data set [5] is 18 h; in data set [16] it was 16 h. For the same compound, the Emax in [6] amounted to 601%; in data set [13] it was 80%; in data set [14], 89%; in data set [17] it was 11%. The same compound gave a bioavailability in data set [10] of 40%. The Vd in data set [11] was determined as 5.2 L/kg. The compound also yielded an exposure (AUC) in [15] of 5.8 µM·h.

For the origin of these results see ChEMBL document CHEMBL5143714, “Discovery of BMS-986339, a Pharmacologically Differentiated Farnesoid X Receptor Agonist for the Treatment of Nonalcoholic Steatohepatitis” (J Med Chem, 2022).
